Measured values taken from paper PMC4774911, “Biochemical Screening of Five Protein Kinases from Plasmodium falciparum against 14,000 Cell-Active Compounds” (PLoS ONE, 2016).
Several values for one entry are separate records, joined by “and”; a condition that tells them apart may be missing. Equal entries are not always repeated.

How the values were obtained:
Assay in all cases: biochemical
[1] = target: ERN1 (Homo sapiens, UniProt O75460)
[2] = target: T1, NLK (Homo sapiens, UniProt Q9UBE8)
T1 sequence (Q9UBE8 1-527): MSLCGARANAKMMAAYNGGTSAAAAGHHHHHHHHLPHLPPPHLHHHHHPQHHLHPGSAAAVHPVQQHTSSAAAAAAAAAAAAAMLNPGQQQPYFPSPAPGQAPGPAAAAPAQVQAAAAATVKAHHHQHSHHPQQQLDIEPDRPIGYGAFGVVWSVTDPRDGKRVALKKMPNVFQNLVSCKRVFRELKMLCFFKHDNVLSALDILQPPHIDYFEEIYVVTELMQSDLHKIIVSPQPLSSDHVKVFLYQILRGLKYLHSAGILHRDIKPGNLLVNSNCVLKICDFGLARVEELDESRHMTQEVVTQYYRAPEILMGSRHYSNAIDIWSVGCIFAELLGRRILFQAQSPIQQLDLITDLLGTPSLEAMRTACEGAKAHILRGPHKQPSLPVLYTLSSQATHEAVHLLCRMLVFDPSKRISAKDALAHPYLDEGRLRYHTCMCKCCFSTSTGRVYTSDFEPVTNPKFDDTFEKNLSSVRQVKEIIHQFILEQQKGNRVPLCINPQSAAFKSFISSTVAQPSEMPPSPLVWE

[3] = target: T2, PIP4K2B (Homo sapiens, UniProt P78356)
T2 sequence (P78356 1-416): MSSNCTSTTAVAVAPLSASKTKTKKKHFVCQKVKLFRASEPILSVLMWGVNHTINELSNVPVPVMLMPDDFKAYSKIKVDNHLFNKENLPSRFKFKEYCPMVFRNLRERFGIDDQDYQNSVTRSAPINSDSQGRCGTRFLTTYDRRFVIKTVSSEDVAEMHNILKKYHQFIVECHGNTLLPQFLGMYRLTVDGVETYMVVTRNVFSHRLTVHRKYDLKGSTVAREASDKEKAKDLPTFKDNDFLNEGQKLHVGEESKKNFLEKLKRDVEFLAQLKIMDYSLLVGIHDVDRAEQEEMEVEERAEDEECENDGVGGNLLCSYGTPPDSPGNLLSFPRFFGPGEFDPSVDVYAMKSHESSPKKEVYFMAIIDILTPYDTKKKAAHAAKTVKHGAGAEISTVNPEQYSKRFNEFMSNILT

[4] = target: PRKDC (Homo sapiens, UniProt P78527)
[5] = target: T3, TAOK2 (Homo sapiens, UniProt Q9UL54)
T3 sequence (Q9UL54 1-1235): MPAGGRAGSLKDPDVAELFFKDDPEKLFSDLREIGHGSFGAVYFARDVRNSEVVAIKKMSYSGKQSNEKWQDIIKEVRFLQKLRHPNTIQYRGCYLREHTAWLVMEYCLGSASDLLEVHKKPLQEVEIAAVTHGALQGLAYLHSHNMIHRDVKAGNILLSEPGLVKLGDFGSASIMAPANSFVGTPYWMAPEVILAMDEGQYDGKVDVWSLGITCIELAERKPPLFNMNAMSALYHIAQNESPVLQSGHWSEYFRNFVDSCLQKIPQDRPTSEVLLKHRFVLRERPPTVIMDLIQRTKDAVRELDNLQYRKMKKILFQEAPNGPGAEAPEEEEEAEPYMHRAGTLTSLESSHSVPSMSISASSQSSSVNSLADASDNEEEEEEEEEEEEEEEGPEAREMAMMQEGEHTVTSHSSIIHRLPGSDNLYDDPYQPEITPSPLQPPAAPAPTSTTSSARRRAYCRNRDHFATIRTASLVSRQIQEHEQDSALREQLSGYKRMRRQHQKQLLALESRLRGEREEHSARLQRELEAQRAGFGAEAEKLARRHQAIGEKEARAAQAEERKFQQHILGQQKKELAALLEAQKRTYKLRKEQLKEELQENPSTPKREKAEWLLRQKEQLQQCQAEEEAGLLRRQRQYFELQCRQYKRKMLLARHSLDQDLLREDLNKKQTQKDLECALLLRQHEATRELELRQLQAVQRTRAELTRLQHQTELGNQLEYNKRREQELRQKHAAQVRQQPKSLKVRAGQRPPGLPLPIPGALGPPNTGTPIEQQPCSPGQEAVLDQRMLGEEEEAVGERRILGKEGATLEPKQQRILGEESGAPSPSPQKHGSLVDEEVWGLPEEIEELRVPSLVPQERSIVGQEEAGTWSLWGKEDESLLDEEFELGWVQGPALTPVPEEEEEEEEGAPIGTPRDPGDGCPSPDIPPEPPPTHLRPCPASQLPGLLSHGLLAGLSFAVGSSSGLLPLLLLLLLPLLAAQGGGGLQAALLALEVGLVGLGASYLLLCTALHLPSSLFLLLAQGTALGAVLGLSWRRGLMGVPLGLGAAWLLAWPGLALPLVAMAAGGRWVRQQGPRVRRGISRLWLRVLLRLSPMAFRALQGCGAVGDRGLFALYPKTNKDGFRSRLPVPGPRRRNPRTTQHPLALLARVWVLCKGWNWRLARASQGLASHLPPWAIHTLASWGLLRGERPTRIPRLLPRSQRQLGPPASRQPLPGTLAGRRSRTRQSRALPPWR

[6] = target: CDK6 (Homo sapiens, UniProt Q00534)
CDK6, sequence (Q00534 whole entry): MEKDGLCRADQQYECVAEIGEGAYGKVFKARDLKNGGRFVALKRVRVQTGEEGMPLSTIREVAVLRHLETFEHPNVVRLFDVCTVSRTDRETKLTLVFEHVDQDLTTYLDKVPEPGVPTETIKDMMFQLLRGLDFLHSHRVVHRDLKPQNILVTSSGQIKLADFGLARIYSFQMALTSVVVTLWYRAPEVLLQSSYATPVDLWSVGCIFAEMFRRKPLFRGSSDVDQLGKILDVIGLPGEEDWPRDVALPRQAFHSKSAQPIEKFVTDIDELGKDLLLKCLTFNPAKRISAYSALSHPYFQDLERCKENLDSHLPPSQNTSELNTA

[7] = target: NEK6 (Homo sapiens, UniProt Q9HC98)
NEK6, sequence (Q9HC98 whole entry): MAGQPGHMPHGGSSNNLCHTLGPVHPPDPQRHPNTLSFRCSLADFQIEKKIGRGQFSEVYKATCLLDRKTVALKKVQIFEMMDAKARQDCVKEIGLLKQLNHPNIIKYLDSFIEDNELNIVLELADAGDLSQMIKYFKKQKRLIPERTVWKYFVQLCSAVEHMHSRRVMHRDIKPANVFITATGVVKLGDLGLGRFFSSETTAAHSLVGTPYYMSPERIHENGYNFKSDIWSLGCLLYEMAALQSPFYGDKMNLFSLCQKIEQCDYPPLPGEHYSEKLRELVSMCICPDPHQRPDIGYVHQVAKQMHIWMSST

[8] = target: RPS6KA3 (Homo sapiens, UniProt P51812)
RPS6KA3, sequence (P51812 whole entry): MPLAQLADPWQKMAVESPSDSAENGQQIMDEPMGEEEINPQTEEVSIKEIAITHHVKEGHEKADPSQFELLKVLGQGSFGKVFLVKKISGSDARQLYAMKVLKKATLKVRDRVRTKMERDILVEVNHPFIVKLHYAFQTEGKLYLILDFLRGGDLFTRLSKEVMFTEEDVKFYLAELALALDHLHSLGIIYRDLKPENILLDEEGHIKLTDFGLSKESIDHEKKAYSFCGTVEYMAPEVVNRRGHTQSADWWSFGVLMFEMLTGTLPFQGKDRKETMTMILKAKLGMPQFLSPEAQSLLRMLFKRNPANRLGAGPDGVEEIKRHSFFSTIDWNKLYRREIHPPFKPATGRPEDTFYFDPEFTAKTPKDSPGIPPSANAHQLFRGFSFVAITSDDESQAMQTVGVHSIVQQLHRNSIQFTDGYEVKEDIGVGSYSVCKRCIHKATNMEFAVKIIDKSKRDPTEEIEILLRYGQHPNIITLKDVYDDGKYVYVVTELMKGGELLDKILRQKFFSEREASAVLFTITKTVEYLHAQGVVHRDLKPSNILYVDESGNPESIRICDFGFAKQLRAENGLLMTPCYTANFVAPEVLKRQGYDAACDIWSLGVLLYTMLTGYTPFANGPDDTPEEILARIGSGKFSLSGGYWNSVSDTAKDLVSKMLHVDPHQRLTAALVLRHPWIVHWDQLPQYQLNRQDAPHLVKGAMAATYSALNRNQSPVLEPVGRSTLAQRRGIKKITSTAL

[9] = target: TNK2 (Homo sapiens, UniProt Q07912)
TNK2, sequence (Q07912 whole entry): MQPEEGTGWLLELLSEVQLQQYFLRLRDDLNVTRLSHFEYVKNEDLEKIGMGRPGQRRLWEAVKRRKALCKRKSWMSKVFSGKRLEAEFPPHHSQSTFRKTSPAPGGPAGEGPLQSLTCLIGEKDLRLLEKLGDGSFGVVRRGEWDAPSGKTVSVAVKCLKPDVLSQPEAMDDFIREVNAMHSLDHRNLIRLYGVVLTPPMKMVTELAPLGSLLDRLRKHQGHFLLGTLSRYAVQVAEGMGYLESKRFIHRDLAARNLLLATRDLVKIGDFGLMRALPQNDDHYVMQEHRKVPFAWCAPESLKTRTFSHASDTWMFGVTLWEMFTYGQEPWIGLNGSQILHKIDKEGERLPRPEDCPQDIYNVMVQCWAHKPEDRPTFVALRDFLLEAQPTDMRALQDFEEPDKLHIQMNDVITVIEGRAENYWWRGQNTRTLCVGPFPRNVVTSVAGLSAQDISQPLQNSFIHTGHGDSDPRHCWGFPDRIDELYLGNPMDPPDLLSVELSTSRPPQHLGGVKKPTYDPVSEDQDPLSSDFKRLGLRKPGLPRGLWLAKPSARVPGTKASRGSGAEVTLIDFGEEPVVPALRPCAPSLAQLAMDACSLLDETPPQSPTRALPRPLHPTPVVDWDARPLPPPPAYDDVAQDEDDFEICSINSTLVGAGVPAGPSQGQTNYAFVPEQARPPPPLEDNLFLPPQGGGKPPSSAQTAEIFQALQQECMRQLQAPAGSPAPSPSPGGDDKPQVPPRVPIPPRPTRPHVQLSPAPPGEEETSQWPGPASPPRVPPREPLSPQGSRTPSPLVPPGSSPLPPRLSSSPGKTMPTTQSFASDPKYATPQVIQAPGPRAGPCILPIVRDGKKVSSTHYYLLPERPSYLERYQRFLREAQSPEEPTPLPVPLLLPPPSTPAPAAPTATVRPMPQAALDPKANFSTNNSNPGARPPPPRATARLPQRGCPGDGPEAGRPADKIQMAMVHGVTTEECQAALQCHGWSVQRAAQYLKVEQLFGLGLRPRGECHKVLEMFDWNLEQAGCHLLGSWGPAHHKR

ERN1, sequence (O75460 whole entry): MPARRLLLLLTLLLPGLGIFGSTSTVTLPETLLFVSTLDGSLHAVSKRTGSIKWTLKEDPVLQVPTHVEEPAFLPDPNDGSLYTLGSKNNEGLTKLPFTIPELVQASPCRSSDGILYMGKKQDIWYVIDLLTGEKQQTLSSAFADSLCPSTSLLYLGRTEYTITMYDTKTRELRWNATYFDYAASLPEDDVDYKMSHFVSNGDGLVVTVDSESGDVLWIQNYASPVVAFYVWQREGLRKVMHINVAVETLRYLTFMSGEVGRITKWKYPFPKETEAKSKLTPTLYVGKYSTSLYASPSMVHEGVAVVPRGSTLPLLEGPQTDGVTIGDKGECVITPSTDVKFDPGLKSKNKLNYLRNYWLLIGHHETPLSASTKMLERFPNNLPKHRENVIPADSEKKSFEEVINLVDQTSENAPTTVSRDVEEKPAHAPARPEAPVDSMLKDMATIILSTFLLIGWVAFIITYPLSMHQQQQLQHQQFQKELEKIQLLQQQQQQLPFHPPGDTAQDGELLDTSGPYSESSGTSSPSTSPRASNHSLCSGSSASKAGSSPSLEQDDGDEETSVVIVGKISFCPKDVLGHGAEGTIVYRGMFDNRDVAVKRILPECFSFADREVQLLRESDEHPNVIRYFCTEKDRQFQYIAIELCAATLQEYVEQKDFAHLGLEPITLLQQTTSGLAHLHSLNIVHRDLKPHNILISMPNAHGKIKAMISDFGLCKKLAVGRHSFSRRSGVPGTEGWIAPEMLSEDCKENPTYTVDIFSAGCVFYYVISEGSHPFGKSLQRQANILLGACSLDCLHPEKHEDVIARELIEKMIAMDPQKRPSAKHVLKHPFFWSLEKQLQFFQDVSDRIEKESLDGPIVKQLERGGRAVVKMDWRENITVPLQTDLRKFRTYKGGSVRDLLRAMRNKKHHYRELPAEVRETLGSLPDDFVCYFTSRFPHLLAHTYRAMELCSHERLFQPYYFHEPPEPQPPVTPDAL

Structure (SMILES) | IC50 [1] [µM] | IC50 [2] | IC50 [3] | IC50 [4] [µM] | IC50 [5] [µM] | IC50 [6] | IC50 [7] [µM] | IC50 [8] | IC50 [9] [µM]
CN(C)CC(O)COc1ccc(Nc2ncc([N+](=O)[O-])c(Nc3ccccc3O)n2)cc1.O=C(O)C(F)(F)F (stereo not drawn) [TCMDC-141399] | > 20 | > 20 µM | 0.97 µM | > 20 | > 20 | – | – | – | –
Cl.NCC1(c2nc(-c3ccc(Cl)c(O)c3)c(-c3ccncc3)[nH]2)CCCCC1 [TCMDC-141154] | – | – | – | > 20 | – | > 20 µM | > 20 | > 20 µM | > 20
CN1CCN(c2ccc(Nc3ncc(C#N)c(Nc4ccccc4C(N)=O)n3)cc2)CC1.Cl [TCMDC-134116] | 0.17 | 1.6 µM and 1.5 µM | 1.6 µM and 1 µM | – | 0.4 | 0.16 µM and 0.18 µM | 0.26 | 0.089 µM and 0.12 µM | 0.16
